# Data: ChEMBL document CHEMBL1201861, “Genomics of Drug Sensitity in Cancer screening data, Wellcome Trust Sanger Institute”
# Key:
# [1] = test system: VM-CUB-1; assay: cells; format: functional, cell-based, Homo sapiens; conditions: Homo sapiens, VM-CUB-1;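 note: cell viability assay measuring growth inhibition of the human VM-CUB-1 cell line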
# Description: SANGER: Inhibition of human VM-CUB-1 cell growth in a cell viability assay.
# [2] = test system: HN; assay: cells; format: functional, cell-based, Homo sapiens; conditions: Homo sapiens, HN
# Description: SANGER: Inhibition of human HN cell growth in a cell viability assay.
# [3] = test system: NCI-H358; assay: cells; format: functional, cell-based, Homo sapiens; conditions: Homo sapiens, NCI-H358;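 note: growth inhibition of NCI-H358 human cells, read out with a cell viability assay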
# Description: SANGER: Inhibition of human NCI-H358 cell growth in a cell viability assay.
# [4] = test system: NCI-H1623; assay: cells; format: functional, cell-based, Homo sapiens; conditions: Homo sapiens, NCI-H1623;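 note: cell viability assay used as the read-out for growth inhibition of NCI-H1623 cells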
# Description: SANGER: Inhibition of human NCI-H1623 cell growth in a cell viability assay.
# [5] = test system: LU-99A; assay: cells; format: functional, cell-based, Homo sapiens; conditions: Homo sapiens, LU-99A;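 note: growth inhibition of LU-99A cells, read out with a cell viability assay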
# Description: SANGER: Inhibition of human LU-99A cell growth in a cell viability assay.
# [6] = test system: IGROV-1; assay: cells; format: functional, cell-based, Homo sapiens; conditions: Homo sapiens, IGROV-1;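 note: reduction of IGROV-1 cell growth, read out with a viability assay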
# Description: SANGER: Inhibition of human IGROV-1 cell growth in a cell viability assay.
# [7] = test system: HEC-1; assay: cells; format: functional, cell-based, Homo sapiens; conditions: Homo sapiens, HEC-1;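 note: growth inhibition of the cell line, read out with a cell viability assay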
# Description: SANGER: Inhibition of human HEC-1 cell growth in a cell viability assay.
# [8] = test system: NCI-H64; assay: cells; format: functional, cell-based, Homo sapiens; conditions: Homo sapiens, NCI-H64;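 note: growth inhibition of NCI-H64 cells, read out with a cell viability assay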
# Description: SANGER: Inhibition of human NCI-H64 cell growth in a cell viability assay.
# [9] = test system: SU-DHL-1; assay: SANGER: Inhibition of human SU-DHL-1 cell growth in a cell viability assay.; format: functional, cell-based; conditions: Homo sapiens, SU-DHL-1
# [10] = test system: NB1; assay: cells; format: functional, cell-based, Homo sapiens; conditions: Homo sapiens, NB1;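 note: reduction of NB1 cell proliferation, read out with a viability assay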
# Description: SANGER: Inhibition of human NB1 cell growth in a cell viability assay.
# [11] = test system: LN-405; assay: cells; format: functional, cell-based, Homo sapiens; conditions: Homo sapiens, LN-405
# Description: SANGER: Inhibition of human LN-405 cell growth in a cell viability assay.
# [12] = test system: NCCIT; assay: SANGER: Inhibition of human NCCIT cell growth in a cell viability assay.; format: functional, cell-based; conditions: Homo sapiens, NCCIT
# [13] = test system: KYSE-510; assay: cells; format: functional, cell-based, Homo sapiens; conditions: Homo sapiens, KYSE-510;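 note: cell viability readout used to measure how strongly growth of the cell line is suppressed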
# Description: SANGER: Inhibition of human KYSE-510 cell growth in a cell viability assay.
# [14] = test system: SW780; assay: cells; format: functional, cell-based, Homo sapiens; conditions: Homo sapiens, SW780;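 note: growth inhibition of the cells, read out with a cell viability assay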
# Description: SANGER: Inhibition of human SW780 cell growth in a cell viability assay.
# [15] = test system: LC-1F; assay: cells; format: functional, cell-based, Homo sapiens; conditions: Homo sapiens, LC-1F;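 note: growth inhibition of human LC-1F cells, read out with a cell viability assay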
# Description: SANGER: Inhibition of human LC-1F cell growth in a cell viability assay.
# [16] = test system: S-117; assay: cells; format: functional, cell-based, Homo sapiens; conditions: Homo sapiens, S-117
# Description: SANGER: Inhibition of human S-117 cell growth in a cell viability assay.
# [17] = test system: LCLC-97TM1; assay: cells; format: functional, cell-based, Homo sapiens; conditions: Homo sapiens, LCLC-97TM1;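 note: cell viability assay measuring growth inhibition of human LCLC-97TM1 cells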
# Description: SANGER: Inhibition of human LCLC-97TM1 cell growth in a cell viability assay.
# [18] = test system: GMS-10; assay: cells; format: functional, cell-based, Homo sapiens; conditions: Homo sapiens, GMS-10;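 note: growth inhibition of GMS-10 cells, read out as cell viability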
# Description: SANGER: Inhibition of human GMS-10 cell growth in a cell viability assay.
# [19] = test system: UACC-62; assay: cells; format: functional, cell-based, Homo sapiens; conditions: Homo sapiens, UACC-62;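 note: growth inhibition of human UACC-62 cells, read out by a cell viability assay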
# Description: SANGER: Inhibition of human UACC-62 cell growth in a cell viability assay.
# [20] = test system: CP50-MEL-B; assay: cells; format: functional, cell-based, Homo sapiens; conditions: Homo sapiens, CP50-MEL-B;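 note: growth inhibition of the human cell line, measured with a cell viability read-out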
# Description: SANGER: Inhibition of human CP50-MEL-B cell growth in a cell viability assay.
# [21] = test system: MKN-1; assay: cells; format: functional, cell-based, Homo sapiens; conditions: Homo sapiens, MKN-1;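 note: growth inhibition of human MKN1 cells, read out by a cell viability measurement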
# Description: SANGER: Inhibition of human MKN1 cell growth in a cell viability assay.
# [22] = test system: 639-V; assay: cells; format: functional, cell-based, Homo sapiens; conditions: Homo sapiens, 639-V;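 note: growth inhibition of 639-V cells, read out with a cell viability assay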
# Description: SANGER: Inhibition of human 639-V cell growth in a cell viability assay.
# [23] = test system: CaR-1; assay: cells; format: functional, cell-based, Homo sapiens; conditions: Homo sapiens, CaR-1;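 note: growth inhibition of human CaR-1 cancer cells, read out with a cell viability assay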
# Description: SANGER: Inhibition of human CaR-1 cell growth in a cell viability assay.
# [24] = test system: PANC-03-27; assay: cells; format: functional, cell-based, Homo sapiens; conditions: Homo sapiens, PANC-03-27
# Description: SANGER: Inhibition of human PANC-03-27 cell growth in a cell viability assay.
# [25] = test system: NCI-H1993; assay: cells; format: functional, cell-based, Homo sapiens; conditions: Homo sapiens, NCI-H1993;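 note: growth inhibition of the cancer cell line, assessed with a cell viability assay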
# Description: SANGER: Inhibition of human NCI-H1993 cell growth in a cell viability assay.
# [26] = test system: C3A; assay: cells; format: functional, cell-based, Homo sapiens; conditions: Homo sapiens, C3A;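 note: growth inhibition of C3A human cells, quantified with a cell viability readout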
# Description: SANGER: Inhibition of human C3A cell growth in a cell viability assay.
# [27] = test system: HCT-15; assay: cells; format: functional, cell-based, Homo sapiens; conditions: Homo sapiens, HCT-15;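 note: cell viability readout, IC50 reflecting suppression of HCT-15 cell growth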
# Description: SANGER: Inhibition of human HCT-15 cell growth in a cell viability assay.
# [28] = test system: Ca9-22; assay: cells; format: functional, cell-based, Homo sapiens; conditions: Homo sapiens, Ca9-22;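 note: growth inhibition of Ca9-22 cells, read out with a cell viability assay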
# Description: SANGER: Inhibition of human Ca9-22 cell growth in a cell viability assay.
# [29] = test system: BHT-101; assay: cells; format: functional, cell-based, Homo sapiens; conditions: Homo sapiens, BHT-101
# Description: SANGER: Inhibition of human BHT-101 cell growth in a cell viability assay.
# [30] = test system: CAL-51; assay: cells; format: functional, cell-based, Homo sapiens; conditions: Homo sapiens, CAL-51;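 note: human CAL-51 cell line, growth inhibition read out via a cell viability assay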
# Description: SANGER: Inhibition of human CAL-51 cell growth in a cell viability assay.
# [31] = test system: NCI-H661; assay: cells; format: functional, cell-based, Homo sapiens; conditions: Homo sapiens, NCI-H661;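 note: cell viability assay read-out, IC50 being the concentration that inhibits growth of the cells by half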
# Description: SANGER: Inhibition of human NCI-H661 cell growth in a cell viability assay.
# [32] = test system: SAS; assay: cells; format: functional, cell-based, Homo sapiens; conditions: Homo sapiens, SAS;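 note: growth inhibition of SAS cells, read out with a cell viability assay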
# Description: SANGER: Inhibition of human SAS cell growth in a cell viability assay.
# [33] = test system: SW48; assay: cells; format: functional, cell-based, Homo sapiens; conditions: Homo sapiens, SW48;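 note: growth inhibition of SW48 cells, read out with a cell viability assay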
# Description: SANGER: Inhibition of human SW48 cell growth in a cell viability assay.
# [34] = test system: T-24; assay: cells; format: functional, cell-based, Homo sapiens; conditions: Homo sapiens, T-24;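 note: growth inhibition of T-24 cells, read out with a cell viability assay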
# Description: SANGER: Inhibition of human T-24 cell growth in a cell viability assay.
# [35] = test system: CAL-62; assay: cells; format: functional, cell-based, Homo sapiens; conditions: Homo sapiens, CAL-62;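 note: growth inhibition of CAL-62 cells, read out with a cell viability assay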
# Description: SANGER: Inhibition of human CAL-62 cell growth in a cell viability assay.
# [36] = test system: NCI-H716; assay: cells; format: functional, cell-based, Homo sapiens; conditions: Homo sapiens, NCI-H716;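 note: growth inhibition of human NCI-H716 cells, measured by a cell viability assay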
# Description: SANGER: Inhibition of human NCI-H716 cell growth in a cell viability assay.
# [37] = test system: TE-15; assay: cells; format: functional, cell-based, Homo sapiens; conditions: Homo sapiens, TE-15;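 note: cell viability readout of growth inhibition in TE-15 cells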
# Description: SANGER: Inhibition of human TE-15 cell growth in a cell viability assay.
# [38] = test system: CAL-39; assay: cells; format: functional, cell-based, Homo sapiens; conditions: Homo sapiens, CAL-39;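 note: cell viability assay measuring growth inhibition of CAL-39 cells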
# Description: SANGER: Inhibition of human CAL-39 cell growth in a cell viability assay.
# [39] = test system: SW756; assay: cells; format: functional, cell-based, Homo sapiens; conditions: Homo sapiens, SW756;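 note: growth inhibition of human SW756 cells, read out with a cell viability assay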
# Description: SANGER: Inhibition of human SW756 cell growth in a cell viability assay.
# [40] = test system: HuO-3N1; assay: cells; format: functional, cell-based, Homo sapiens; conditions: Homo sapiens, HuO-3N1;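 note: cell viability readout used to measure how strongly compounds suppress proliferation of human HuO-3N1 cells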
# Description: SANGER: Inhibition of human HuO-3N1 cell growth in a cell viability assay.
# [41] = test system: NCI-H1793; assay: cells; format: functional, cell-based, Homo sapiens; conditions: Homo sapiens, NCI-H1793;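 note: cell growth inhibition, read out by a cell viability assay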
# Description: SANGER: Inhibition of human NCI-H1793 cell growth in a cell viability assay.
# [42] = test system: H4; assay: cells; format: functional, cell-based, Homo sapiens; conditions: Homo sapiens, H4
# Description: SANGER: Inhibition of human H4 cell growth in a cell viability assay.
# [43] = test system: CMK; assay: cells; format: functional, cell-based, Homo sapiens; conditions: Homo sapiens, CMK;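 note: growth inhibition of CMK cells, read out as cell viability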
# Description: SANGER: Inhibition of human CMK cell growth in a cell viability assay.
# [44] = test system: HTC-C3; assay: cells; format: functional, cell-based, Homo sapiens; conditions: Homo sapiens, HTC-C3;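 note: inhibition of cell growth, read out with a cell viability assay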
# Description: SANGER: Inhibition of human HTC-C3 cell growth in a cell viability assay.
# [45] = test system: NCI-H1417; assay: cells; format: functional, cell-based, Homo sapiens; conditions: Homo sapiens, NCI-H1417;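 note: human NCI-H1417 cells, growth inhibition determined with a cell viability readout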
# Description: SANGER: Inhibition of human NCI-H1417 cell growth in a cell viability assay.
# [46] = test system: HCC38; assay: cells; format: functional, cell-based, Homo sapiens; conditions: Homo sapiens, HCC38;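 note: cell viability assay on the human HCC38 cell line, with IC50 marking the concentration that inhibits cell growth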
# Description: SANGER: Inhibition of human HCC38 cell growth in a cell viability assay.
smiles,measurement,setting,value
C=C(c1ccc(C(=O)O)cc1)c1cc2c(cc1C)C(C)(C)CCC2(C)C [BEXAROTENE],IC50,[1],> 8 µM
same,IC50,[2],> 8 µM
same,IC50,[3],> 8 µM
same,IC50,[4],> 8 µM
same,IC50,[5],> 8 µM
same,IC50,[6],> 8 µM
same,IC50,[7],> 8 µM
same,IC50,[8],> 8 µM
same,IC50,[9],> 8 µM
same,IC50,[10],> 8 µM
same,IC50,[11],> 8 µM
same,IC50,[12],> 8 µM
same,IC50,[13],> 8 µM
same,IC50,[14],> 8 µM
same,IC50,[15],> 8 µM
same,IC50,[16],> 8 µM
same,IC50,[17],> 8 µM
same,IC50,[18],> 8 µM
same,IC50,[19],> 8 µM
same,IC50,[20],> 8 µM
same,IC50,[21],> 8 µM
same,IC50,[22],> 8 µM
same,IC50,[23],> 8 µM
same,IC50,[24],> 8 µM
same,IC50,[25],> 8 µM
same,IC50,[26],> 8 µM
same,IC50,[27],> 8 µM
same,IC50,[28],> 8 µM
same,IC50,[29],> 8 µM
same,IC50,[30],> 8 µM
same,IC50,[31],> 8 µM
same,IC50,[32],> 8 µM
same,IC50,[33],> 8 µM
same,IC50,[34],> 8 µM
same,IC50,[35],> 8 µM
same,IC50,[36],> 8 µM
same,IC50,[37],> 8 µM
same,IC50,[38],> 8 µM
same,IC50,[39],> 8 µM
same,IC50,[40],> 8 µM
same,IC50,[41],> 8 µM
same,IC50,[42],> 8 µM
same,IC50,[43],> 8 µM
same,IC50,[44],> 8 µM
same,IC50,[45],> 8 µM
same,IC50,[46],> 8 µM
CCC/C=C/C=C/C(=O)O[C@H]1/C(=C/C(=O)OC)C[C@H]2C[C@H]([C@@H](C)O)OC(=O)C[C@H](O)C[C@@H]3C[C@H](OC(C)=O)C(C)(C)[C@](O)(C[C@@H]4C/C(=C/C(=O)OC)C[C@H](/C=C/C(C)(C)[C@]1(O)O2)O4)O3 [BRYOSTATIN 1],IC50,[1],> 0.008 µM
same,IC50,[2],> 0.008 µM
same,IC50,[3],> 0.008 µM
same,IC50,[4],> 0.008 µM
same,IC50,[5],> 0.008 µM
same,IC50,[6],> 0.008 µM
same,IC50,[7],> 0.008 µM
same,IC50,[8],> 0.008 µM
same,IC50,[9],> 0.008 µM
same,IC50,[10],> 0.008 µM
same,IC50,[11],> 0.008 µM
same,IC50,[12],> 0.008 µM
same,IC50,[13],> 0.008 µM
same,IC50,[14],> 0.008 µM
same,IC50,[15],> 0.008 µM
same,IC50,[16],0.00592 µM
same,IC50,[17],> 0.008 µM
same,IC50,[18],> 0.008 µM
same,IC50,[19],> 0.008 µM
same,IC50,[20],> 0.008 µM
same,IC50,[21],> 0.008 µM
same,IC50,[22],> 0.008 µM
same,IC50,[23],> 0.008 µM
same,IC50,[24],> 0.008 µM
same,IC50,[25],> 0.008 µM
same,IC50,[26],> 0.008 µM
same,IC50,[27],> 0.008 µM
same,IC50,[28],> 0.008 µM
same,IC50,[29],> 0.008 µM
same,IC50,[30],> 0.008 µM
same,IC50,[31],> 0.008 µM
same,IC50,[32],> 0.008 µM
same,IC50,[33],> 0.008 µM
same,IC50,[34],> 0.008 µM
same,IC50,[35],> 0.008 µM
same,IC50,[36],> 0.008 µM
same,IC50,[37],> 0.008 µM
same,IC50,[38],> 0.008 µM
same,IC50,[39],> 0.008 µM
same,IC50,[40],> 0.008 µM
same,IC50,[41],> 0.008 µM
same,IC50,[42],> 0.008 µM
same,IC50,[43],> 0.008 µM
same,IC50,[44],> 0.008 µM
same,IC50,[45],> 0.008 µM
same,IC50,[46],> 0.008 µM
COc1cccc2c1C(=O)c1c(O)c3c(c(O)c1C2=O)C[C@@](O)(C(=O)CO)C[C@@H]3O[C@H]1C[C@H](N)[C@H](O)[C@H](C)O1 [DOXORUBICIN],IC50,[1],0.0754 µM
same,IC50,[2],0.354 µM
same,IC50,[3],0.0411 µM
same,IC50,[4],0.605 µM
same,IC50,[5],0.147 µM
same,IC50,[6],0.0072 µM
same,IC50,[7],0.183 µM
same,IC50,[8],0.133 µM
same,IC50,[9],0.103 µM
same,IC50,[10],0.046 µM
same,IC50,[11],> 1.02 µM
same,IC50,[12],0.0201 µM
same,IC50,[13],0.0155 µM
same,IC50,[14],> 1.02 µM
same,IC50,[15],> 1.02 µM
same,IC50,[16],> 1.02 µM
same,IC50,[17],0.0118 µM
same,IC50,[18],> 1.02 µM
same,IC50,[19],> 1.02 µM
same,IC50,[20],> 1.02 µM
same,IC50,[21],0.00986 µM
same,IC50,[22],0.0159 µM
same,IC50,[23],> 1.02 µM
same,IC50,[24],0.0282 µM
same,IC50,[25],1 µM
same,IC50,[26],0.416 µM
same,IC50,[27],> 1.02 µM
same,IC50,[28],0.0501 µM
same,IC50,[29],0.396 µM
same,IC50,[30],0.0173 µM
same,IC50,[31],0.049 µM
same,IC50,[32],0.114 µM
same,IC50,[33],0.0497 µM
same,IC50,[34],0.245 µM
same,IC50,[35],0.0328 µM
same,IC50,[36],> 1.02 µM
same,IC50,[37],0.0241 µM
same,IC50,[38],0.0982 µM
same,IC50,[39],0.275 µM
same,IC50,[40],> 1.02 µM
same,IC50,[41],0.901 µM
same,IC50,[42],0.0716 µM
same,IC50,[43],0.0774 µM
same,IC50,[44],0.704 µM
same,IC50,[45],0.37 µM
same,IC50,[46],0.0425 µM
